Data reported in ChEMBL document CHEMBL4371087, “Development of novel liver X receptor modulators based on a 1,2,4-triazole scaffold” (Bioorg Med Chem Lett, 2019).
Calls of active or inactive are those of the source. The calls are words filed in the database; no cut-off is given here.

How the values were obtained:
Assay type in all cases: cell-based
Homo sapiens = species: Homo sapiens; experiment: Selectivity ratio of EC50 for full length human LXRalpha expressed in HEK293 cells to EC50 for full length human LXRbeta expressed in HEK293 cells
[1] = target: T1, Oxysterols receptor LXR-beta (Homo sapiens) (UniProt P55055); experiment: Agonist activity at full length human LXRbeta expressed in HEK293 cells harboring LXRE-Luc promoter at 10 uM by luciferase reporter gene assay relative to T0901317
T1 sequence (whole entry): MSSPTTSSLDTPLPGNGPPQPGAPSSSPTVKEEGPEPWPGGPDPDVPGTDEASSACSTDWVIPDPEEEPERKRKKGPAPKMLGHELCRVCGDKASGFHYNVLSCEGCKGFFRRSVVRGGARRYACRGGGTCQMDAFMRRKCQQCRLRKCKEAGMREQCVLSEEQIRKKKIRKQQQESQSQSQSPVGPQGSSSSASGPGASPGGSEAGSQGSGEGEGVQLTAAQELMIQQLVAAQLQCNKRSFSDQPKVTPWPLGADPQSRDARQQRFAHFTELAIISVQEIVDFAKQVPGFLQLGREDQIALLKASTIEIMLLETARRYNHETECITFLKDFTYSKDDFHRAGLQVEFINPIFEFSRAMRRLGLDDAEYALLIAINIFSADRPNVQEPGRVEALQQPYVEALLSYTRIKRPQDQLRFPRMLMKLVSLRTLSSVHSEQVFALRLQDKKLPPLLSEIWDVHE

[2] = target: T2, Oxysterols receptor LXR-alpha (Homo sapiens) (UniProt Q13133); experiment: Agonist activity at full length human LXRalpha expressed in HEK293 cells harboring LXRE-Luc promoter at 10 uM by luciferase reporter gene assay relative to T0901317
T2 sequence (whole entry): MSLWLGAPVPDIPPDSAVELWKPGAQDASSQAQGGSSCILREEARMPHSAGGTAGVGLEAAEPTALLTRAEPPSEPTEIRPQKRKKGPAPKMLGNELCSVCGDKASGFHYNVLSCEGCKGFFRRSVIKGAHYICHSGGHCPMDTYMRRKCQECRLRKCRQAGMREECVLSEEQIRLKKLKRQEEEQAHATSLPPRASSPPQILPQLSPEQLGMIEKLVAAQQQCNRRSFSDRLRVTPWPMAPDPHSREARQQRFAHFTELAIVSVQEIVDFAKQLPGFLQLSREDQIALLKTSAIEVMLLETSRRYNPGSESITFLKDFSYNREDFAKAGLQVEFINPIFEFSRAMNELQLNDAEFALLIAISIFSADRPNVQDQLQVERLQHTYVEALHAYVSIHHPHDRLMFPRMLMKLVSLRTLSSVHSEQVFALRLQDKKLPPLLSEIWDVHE

[3] = target: T3, Oxysterols receptor LXR-alpha (Homo sapiens, UniProt Q13133); experiment: Agonist activity at full length human LXRalpha expressed in HEK293 cells harboring LXRE-Luc promoter by luciferase reporter gene assay
T3 sequence (Q13133 whole entry): T2 sequence (whole entry)

[4] = target: T4, Oxysterols receptor LXR-beta (Homo sapiens, UniProt P55055); experiment: Agonist activity at full length human LXRbeta expressed in HEK293 cells harboring LXRE-Luc promoter by luciferase reporter gene assay
T4 sequence (P55055 whole entry): T1 sequence (whole entry)

SMILES	Ratio EC50 (Homo sapiens)	Emax [1]	Emax [2]	EC50 [3]	EC50 [4]
CC(=O)n1nc(Cc2ccccc2)nc1-c1ccccc1	0.49	68%	50%	701 nM	1420 nM
Clc1ccc(-c2n[nH]c(-c3ccccc3)n2)cc1	1.26	60%	51%	309 nM	245 nM
Clc1ccc(-c2n[nH]c(Cc3ccccc3)n2)cc1	–	73%	inactive	–	2570 nM
Cn1nc(-c2ccc(Cl)cc2)nc1-c1ccccc1	0.6	83%	77%	1190 nM	1990 nM
Brc1ccccc1-c1n[nH]c(-c2ccccc2)n1	0.79	67%	52%	390 nM	493 nM
c1ccc(-c2nc(-c3ccccc3)n(C3CC3)n2)cc1	–	inactive	inactive	–	–
CCCCn1nc(-c2ccccc2)nc1-c1ccccc1	–	inactive	65%	2470 nM	–
Clc1ccc(-c2nc(-c3ccccc3)n(Cc3ccccc3)n2)cc1	0.32	61%	53%	2130 nM	6710 nM
CCn1nc(-c2ccc(Cl)cc2)nc1-c1ccccc1	–	inactive	60%	2290 nM	–
COc1cccc(-c2nc(-c3ccccc3)n(S(=O)(=O)c3ccc(C)cc3)n2)c1	–	inactive	inactive	–	–
CCn1nc(-c2ccccc2)nc1-c1ccccc1	–	inactive	inactive	–	–
CC(=O)n1nc(-c2ccc(C)cc2)nc1-c1ccccc1	0.65	62%	53%	228 nM	351 nM
Clc1ccccc1-c1n[nH]c(-c2ccccc2)n1	–	–	–	526 nM	640 nM
Cn1nc(-c2ccccc2)nc1-c1ccccc1	0.94	71%	64%	2470 nM	2640 nM
CC(=O)n1nc(-c2ccc(Br)cc2)nc1-c1ccccc1	–	–	–	113 nM	231 nM
Clc1ccccc1-c1n[nH]c(Cc2ccccc2)n1	0.59	61%	46%	570 nM	966 nM
c1ccc(-c2n[nH]c(-c3cccnc3)n2)cc1	–	inactive	inactive	–	–
Brc1ccc(-c2nc(-c3ccccc3)n(Cc3ccccc3)n2)cc1	7.06	69%	78%	5030 nM	712 nM
Brc1ccc(-c2n[nH]c(-c3ccccc3)n2)cc1	2.41	62%	55%	164 nM	68 nM
c1ccc(Cn2nc(-c3ccccc3)nc2-c2ccccc2)cc1	–	inactive	58%	2180 nM	–
c1ccc(-c2n[nH]c(-c3ccccc3)n2)cc1	–	–	–	142 nM	1010 nM
c1ccc(Cc2nc(-c3ccccc3)n[nH]2)cc1	0.36	–	–	2200 nM	6150 nM
COc1cccc(-c2nc(-c3ccccc3)n(C(C)=O)n2)c1	1.06	78%	62%	115 nM	109 nM
CCn1nc(-c2ccc(Br)cc2)nc1-c1ccccc1	0.4	71%	45%	2240 nM	5650 nM
CCCCn1nc(-c2ccc(Cl)cc2)nc1-c1ccccc1	–	inactive	inactive	–	–
COc1cccc(-c2n[nH]c(-c3ccccc3)n2)c1	1.59	72%	60%	108 nM	68 nM
Cc1ccc(S(=O)(=O)n2nc(-c3ccccc3)nc2-c2ccccc2)cc1	6.58	81%	75%	1700 nM	259 nM
Cc1ccc(-c2n[nH]c(-c3ccccc3)n2)cc1	0.91	73%	62%	77 nM	85 nM
CC(=O)n1nc(-c2ccccc2)nc1-c1ccccc1	–	–	–	396 nM	232 nM
COc1cccc(-c2nc(-c3ccccc3)n(Cc3ccccc3)n2)c1	0.38	69%	62%	903 nM	2360 nM
